Patent US20250195448A1, “CELL TYPE SELECTIVE DELIVERY OF EXOSOME CARGO USING NOTCH LIGAND-RECEPTOR SYSTEM” (Northwestern University, priority 2023, published 2025)
“Also recorded” adds a separate entry of the source.

Columns and labels:
Alix = Alix phosphorylation in Mg^2+-free glycine-treated neurons (IP of Alix, WB p-S/T); type: cell-based, rat; details: for effect on Mg^2+-free glycine-induced Alix phosphorylation: H89 20 μM, staurosporine 1 μM, APV 50 μM, KN93 10 μM, AIP 1 μM
Experimental: Neurons were pretreated with DMSO (1:1000) or dynasore (80 μM, Sigma-Aldrich, Cat #SML0340) or H89 (20 μM, Sigma-Aldrich, Cat #B1427) or staurosporine (1 μM, Tocris, Cat #1285) or APV (50 μM, Sigma-Aldrich, Cat #A5282) or KN93 (10 μM, Sigma-Aldrich, Cat #K1385) or AIP (1 μM, Anaspec, Cat #AS-64929) for 30 mins at 37° C. in a humidified 5% CO2 atmosphere incubator. Then, neuron culture medium was carefully removed from dishes. The collected medium was then kept at 37° C. in a humidified 5% CO2 atmosphere incubator. The neurons were washed three times with Veh or Mg^2+-free glycine and incubated for 5 min with solutions containing different inhibitors. Then neurons were washed twice with Veh solution, the saved culture medium was returned and maintained in incubator for assigned durations (37° C., 5% CO2).
WedgeWell™ Tris-Glycine Mini Protein Gels (Fisher Scientific, Cat #XP04125BOX, XP04120BOX and XV00100PK20) were used for electrophoresis. After electrophoresis, proteins were transferred onto nitrocellulose membranes (Thermo Fisher, Cat #4500002). For WB, the membranes were blocked with 10% bovine serum albumin (BSA, Jackson immunoResearch laboratories, Cat #001-000-162) in TBST solution (Tris-buffered saline, 0.1% Tween 20) for one hour in room temperature (RT). Then membranes were incubated with primary antibodies in incubation solution (3% BSA in TBST) overnight at 4° C. with mild agitation. Following primary antibodies were used: mouse anti-Alix (1:1000, Cell Signaling Technology, Cat #2171S, RRID: AB_2299455), rabbit anti-Alix (1:1000, Cell Signaling Technology, Cat #18269, RRID: AB_2798796), mouse anti-Tsg101 (1:1000, Santa Cruz Biotechnology, Cat #sc-7964, RRID: AB_671392), mouse anti-CD81 (1:1000, Santa Cruz Biotechnology, Cat #sc-166029, RRID: AB_2275892), rabbit anti-Notch1ICD (1:1000, Abcam, Cat #ab52627, RRID: AB_881725), rabbit anti-Notch2ICD (1:1000, Cell Signaling Technology, Cat #5732S, RRID: AB_10693319), rabbit anti-activated Notch1 (1:1000, Abcam, Cat #ab52301, RRID: AB_881726), rabbit anti-activated Notch2 (1:1000, MyBioSource, Cat #MBS9410510), rabbit anti-Sdcbp (1:1000, Abcam, Cat #ab19903, RRID: AB_445200 and Cell Signaling Technology, Cat #27964), rabbit anti-GM130 (1:1000, Abcam, Cat #ab52649, RRID: AB_880266), rabbit anti-Hes1 (1:1000, Cell Signaling Technology, Cat #11988S, RRID: AB_2728766 and Abcam, Cat #ab71559, RRID: AB_1209570), chicken anti-Tuj1 (1:2000, Novus Biologicals, Cat #NB100-1612, RRID: AB_10000548), rabbit anti-p-S/T (1:1000, Cell Signaling Technology, Cat #9624S, RRID: AB_331817), mouse anti-PSD95 (1:2000, Thermo Fisher Scientific, Cat #MA1-046, RRID: AB_2092361), rabbit anti-PSD95(pS295) (1:1000, Abcam, Cat #ab76108, RRID: AB_1310621), rabbit anti-GAPDH (1:2000, Cell Signaling Technology, Cat #2118, RRID: AB_561053), rabbit anti-GluA1 (1:1000, EMD Millipore, Cat #PC246, RRID: AB_564636) and guinea pig anti-Bassoon (1:1000, Synaptic Systems, Cat #141 318, RRID: AB_2927388). After 3×10 mins intense wash in TBST solution, membranes were incubated with corresponding secondary antibodies for one hour at RT with mild agitation. Following secondary antibodies were used: goat-anti-rabbit poly-HRP (1:2000, Thermo Scientific, Cat #32260), goat-anti-mouse poly-HRP (1:2000, Thermo Scientific, Cat #32230), goat-anti-chicken HRP (1:2000, Abcam, Cat #ab97135) and Goat anti-Guinea Pig poly-HRP (1:2000, Fisher Scientific, Cat #OB6090-05). […] Fiji (NIH) was used for quantification.

hippocampal neurons = experiment: Mg^2+-free glycine-induced neuronal EV release; type: cell-based; details: for effect on Mg^2+-free glycine-induced EV release: APV 50 μM, H89 20 μM
Experimental: Synaptic NMDARs were activated as previously described^16,63. […] The osmolarity was adjusted to 300-330 mOsm/l). […] The osmolarity was adjusted to 300-330 mOsm/l). […] The EV-containing supernatant was centrifuged at 3000×g for 30 mins at 4° C. to remove residual neurons and large debris. Then, the supernatant was concentrated using a molecular weight cutoff (MWCO) filter (10 KDa, EMD Millipore, Cat #UFC801024) to 0.5 ml. The concentrated solution was then fractionated into 10 fractions (0.5 ml in EV-free PBS, MEDIATECH INC CA, Cat #21-040-CV) using a qE-Voriginal-35 nm SEC column (Izon Science, Cat #SP5-USD) with an automated fraction collector V1 (Izon Science, Cat #AFC-V1). For each experimental group, EVs released from three 60 mm dishes of mouse hippocampal neurons were pooled and enriched by the SEC method as described above. Then take 10 μl of the enriched EVs from each sample and dilute them with 990 μl EV-free PBS. The samples were centrifuged at 2500×g for 15 mins. Mix 0.5 ml of each sample with 0.5 ml incubation solution. Load 70 μl of each mixture to an ExoView Mouse Tetraspanin chip (Nanoview Bioscience, Cat #EV-TETRA-M2) and incubate overnight at RT in dark. The next day, unbound EVs were washed off the chip by five 3-min washes with the solution A. After incubating with the block solution for 1 hr (RT), the chips were incubated with anti-tetraspanin mixture (Included in the kit, anti-CD81, CF® 555, anti-CD9, CF® […] and anti-CD63, CF® 647) for 1 hr on an orbital shaker. The chips were washed with the solution A twice (3 mins each) and the solution B 5 times (3 min each). The chips were then rinsed in MilliQ water to remove excess solution B. Air dry the chips. A NanoView R100 equipment (Nanoview Bioscience) was used to scan the chips. The data was analyzed by ExoView Analyzer 3.1.4 (Nanoview Bioscience). […] Then, neuron culture medium was carefully removed from dishes. […] Then neurons were washed twice with Veh solution, the saved culture medium was returned and maintained in incubator for assigned durations (37° C., 5% CO2).

Notch signaling pathway = experiment: Pharmacological treatments of neurons, Mg^2+-free glycine-induced Notch activation (WB); type: cell-based, rat; details: 90 mins after treatment; for effect on Mg^2+-free glycine-induced elevation of activated-Notch1, -Notch2 and Hes1 protein levels: APV 50 μM, dynasore 80 μM pretreatment
Experimental: Synaptic NMDARs were activated as previously described^16,63. […] The osmolarity was adjusted to 300-330 mOsm/l). […] The osmolarity was adjusted to 300-330 mOsm/l). […] Then, neuron culture medium was carefully removed from dishes. […] Then neurons were washed twice with Veh solution, the saved culture medium was returned and maintained in incubator for assigned durations (37° C., 5% CO2). Neuron samples were collected and resuspended in a RIPA lysis buffer (50 mM Tris, 150 mM NaCl, 0.1% SDS, 1 mM EDTA, 0.5% sodium deoxycholate, 1% Triton X-100, 1× protease inhibitor cocktail (Thermo Fisher Scientific, Cat #78443), 1× phosphatase inhibitor (Thermo Fisher Scientific, Cat #78420), pH 7.4). The resuspended lysates were vortexed for 20 s and then incubated on ice for 30 min and centrifuged at 16,200 g for 15 mins. The supernatants were mixed with 4×SDS loading buffer at a 3:1 ratio. The mixtures were boiled at 95° C. for 5 mins. […] Fiji (NIH) was used for quantification.

PSD95 = system: PSD95
Experimental: WedgeWell™ Tris-Glycine Mini Protein Gels (Fisher Scientific, Cat #XP04125BOX, XP04120BOX and XV00100PK20) were used for electrophoresis. After electrophoresis, proteins were transferred onto nitrocellulose membranes (Thermo Fisher, Cat #4500002). For WB, the membranes were blocked with 10% bovine serum albumin (BSA, Jackson immunoResearch laboratories, Cat #001-000-162) in TBST solution (Tris-buffered saline, 0.1% Tween 20) for one hour in room temperature (RT). Then membranes were incubated with primary antibodies in incubation solution (3% BSA in TBST) overnight at 4° C. with mild agitation. […] Fiji (NIH) was used for quantification.

Notch target genes = details: 60 mins after treatment
neurons = details: 30 mins treatment
Experimental: An aliquot of each sample (100 l) was transferred from the culture wells to the wells of a 96-well plate and mixed with 100 μl of the reaction solution provided by the kit. Optical density was measured at 492 nm 45 min later using a Synergy HTX multi-mode microplate reader (Biotek). Background absorbance at 620 nm was subtracted. The maximal releasable LDH in each well was then obtained by a 15 min incubation with 1% Triton X-100 at the end of each experiment.

Experimental for rat hippocampal neurons: DIV 18 rat hippocampal neurons in 6-well plate (cover glasses, Carolina, Cat #633037, 1.5×10^6 cells per well) were used for this assay. At DIV 16, neurons were co-transfected with either 1 μg mCherry+GFP or 1 μg mCherry-Alix+GFP plasmids using HilyMax (Dojindo Cat #H357-15). Two days later, the neurons were used for live cell imaging analysis. Neurons (put in a magnetic imaging chamber, Warner Instruments, Cat #QR-40L) were rinsed three times with warm (37° C.) extracellular solution (pH 7.4, 150 mM NaCl, 5 mM KCl, 1 mM MgCl2, 2 mM CaCl2), 10 mM glucose, 10 mM HEPES). Then the neurons were placed into a heating stage (37° C.) supplied with a humidified 5% CO2 atmosphere and were incubated with this solution for 20 mins in a humidified 5% CO2 atmosphere incubator at 37° C. […] Then the extracellular solution was put back. Images were captured using a Nikon A1R+ confocal laser microscope and a 100× oil objective lens (also was kept at 37° C. during recording). […] The data was imported to Fiji (NIH) for further analysis.

| SMILES | effect on Mg^2+-free glycine-induced Alix phosphorylation (Alix) | effect on Mg^2+-free glycine-induced EV release (hippocampal neurons) | effect on Mg^2+-free glycine-induced elevation of activated-Notch1, -Notch2 and Hes1 protein levels (Notch signaling pathway) | further results |
| --- | --- | --- | --- | --- |
| N[C@H](CCCP(=O)(O)O)C(=O)O [APV, D-2-amino-5-phosphonovalerate] | blocked; also recorded: significantly reduced | suppress; also recorded: blocked | inhibited | – |
| O=C(N/N=C/c1ccc(O)c(O)c1)c1cc2ccccc2cc1O [Dynasore] | – | – | blocked elevation | effect on Mg^2+-free glycine-induced elevation of activated-Notch1, -Notch2 and Hes1 protein levels (Notch signaling pathway; listed as dynasore): inhibited |
| O=S(=O)(NCCNC/C=C/c1ccc(Br)cc1)c1cccc2cnccc12 [H89] | significantly inhibit; also recorded: inhibited | suppress; also recorded: blocked | – | – |
| COc1ccc(S(=O)(=O)N(CCO)c2ccccc2CN(C)C/C=C/c2ccc(Cl)cc2)cc1 [KN93] | failed to block | – | – | – |
| NCC(=O)O [Mg^2+-free glycine, glycine] | – | – | – | Alix phosphorylation after Mg^2+-free glycine stimulation (Alix): leads to Alix phosphorylation; neuronal EV biogenesis and release (hippocampal neurons; Mg^2+-free glycine solution, 30 mins): triggered; dendritic spine enlargement (rat hippocampal neurons): enlarged dendritic spines; phosphorylation of Ser295 (pS295) in PSD95 (PSD95): induces; Notch target gene expression (Notch target genes): activated; plasma membrane rapture (LDH) (neurons): does not cause; levels of activated-Notch1, -Notch2 and Hes1 after Mg^2+-free glycine treatment (Notch signaling pathway; WB): elevated |
| CN[C@@H]1C[C@H]2O[C@@](C)([C@@H]1OC)n1c3ccccc3c3c4c(c5c6ccccc6n2c5c31)C(=O)NC4 [Stau, staurosporine] | not significant | – | – | – |
